Experiments:
[1] = system: isolated heart preparations; assay: antiarrhythmic activity on isolated heart preparations, Krebs perfused Langerdorff model of ischemia and reperfusion; parameters: species or system Male Wistar rats; unit not given here; conditions: drug present during last 5 min of ischemia and during reperfusion, control (no drug) 12 ± 4
Experimental: The evaluation of the antiarrhythmic activity of the compounds set forth above was carried out on isolated heart preparations using the Krebs perfused Langerdorff model (Heisier B. E., Ferrier G. R. “Proarrhythmic actions of flecainide in an isolated tissue model of ischemia and reperfusion” J. Pharmacol. Exp. Ther. 1996, 279, 317). Male Wistar rats, 250–300 g, were anesthetized with pentobarbitone (15 mg/rat=5 mg/100 g body weight) and heparinized (1000 IU)
Hearts were excised and washed in ice cold modified Krebs-Henseleit (KHB) buffer of the following composition in Mm: NaCl 118, KCl 4.7, NaHCO3 25, KH2PO4 1.2, MgSO4 1.4, CaCl2 2.5, Glucose 11. Hearts were mounted on a Langerdorff apparatus, perfused at a pressure 100 mmHg, at 37° C., with KHB (9 ml/min) for 30–40 min and then the “ischemic” KHB solution was applied for 15 min (this solution is a KH buffer in which the glucose is substituted by Tris HCl. The hearts were then perfused with normal KHB for 30 min. Drugs were present during the last 5 min of ischemia and during reperfusion at the final concentration of 30 or 100 μM.
Electrocardiograms were recorded during equilibration, ischemia and reperfusion.
The most important arrhythmias seem to occur during early reperfusion (Li G-R., Ferrier G. R. “Effects of lidocaine on reperfusion arrhythmias and electrophysiological properties in an isolated ventricular muscle model of ischemia and reperfusion” J. Pharmacol. Exp. Ther. 1991, 257, 997).

[2] = system: microsomal lipid peroxidation; assay: in vitro lipid peroxidation, heat-inactivated hepatic microsomal fraction, Fe2+/ascorbate, TBA reactive material; type: biochemical, Fischer rats
Experimental: The antioxidant activity of the new compounds was initially evaluated as set forth below. in vitro lipid peroxidation (Bationi J. P., Fontecave M., Jaouen M., Mansuy D. “Vitamin E derivatives as new potent inhibitors of microsomal lipid peroxidation” Biochem. Biophys. Res. Com. 1991, 174, 1103)
For these experiments, heat-inactivated hepatic microsomal fraction from untreated Fischer rats (200–220 g), corresponding to 0.125 g liver/ml final volume, was used. The incubation mixture contained the microsomal fraction, ascorbic acid (0.2 mM), in Tris buffer (50 mM, pH 7.4) and various concentrations (5 μM–1 mM) of the examined compounds dissolved in DMSO. The lipid peroxidation reaction was initiated with the addition of a freshly prepared FeSO4 solution (10 μM) and aliquots were taken at various time intervals for 45 min. Lipid peroxidation was estimated spectroscopically (535 nm vs. 600 nm) as 2-thiobarbitouric acid (TBA) reactive material. Each experiment was performed at least in triplicate.
The effect of various concentrations of representative compounds of the present invention on lipid peroxidation is shown in Table 1. […] However, there are quantitative differences that appear to be connected with the position of the amide substituent and the length of the side chain.

Compound	% Inhibition ([2]; compound concentration 10 μM) [%]	% Inhibition ([2]; compound concentration 50 μM) [%]	also measured
CCN(CC)CCNC(=O)C1(C)CCc2c(C)c(O)c(C)c(C)c2O1 (stereo not shown) [Compound a, N-(3,4-dihydro-6-hydroxy-2,5,7,8-tetramethyl-2H-1-benzopyran-2-carbonyl)-N′,N′-diethyl Ethylenediamine]	96.3		Incidence of arrhythmias during the reperfusion period ([1]; 30 μM): 7 ± 3.5; Incidence of arrhythmias during the reperfusion period ([1]; 100 μM): 5 ± 2
Cc1c(C)c2c(c(C)c1O)CCC(C)(C(=O)O)O2 (stereo not shown) [Trolox, reference compound]	49		
CCCCCCC1(C(=O)NCCN(CC)CC)CCc2c(C)c(O)c(C)c(C)c2O1 (stereo not shown) [b, N-(3,4-dihydro-2-hexyl-6-hydroxy-5,7,8-trimethyl-2H-1-benzopyran-2-carbonyl)-N′,N′-diethyl Ethylenediamine]	7.7	91	
CCCCCCCCCCCCC1(C(=O)NCCN(CC)CC)CCc2c(C)c(O)c(C)c(C)c2O1 (stereo not shown) [c, N-(3,4-dihydro-2-dodecyl-6-hydroxy-5,7,8-trimethyl-2H-1-benzopyran-2-carbonyl)-N′,N′-diethyl Ethylenediamine]			% Inhibition ([2]; compound concentration 200 μM): 0%; % Inhibition ([2]; compound concentration 400 μM): 48.6%; % Inhibition ([2]; compound concentration 500 μM): 93.8%
CCN(CC)CCNC(=O)c1c(O)c(C)c(C)c2c1CCC(C)(C)O2 [d, N-(3,4-dihydro-6-hydroxy-2,2,7,8-tetramethyl-2H-1-benzopyran-5-carbonyl)-N′,N′-diethyl Ethylenediamine]	38.4	98.1	
CCCCCCC1(C)CCc2c(c(C)c(C)c(O)c2C(=O)NCCN(CC)CC)O1 (stereo not shown) [e, N-(3,4-dihydro-2-hexyl-6-hydroxy-2,7,8-trimethyl-2H-1-benzopyran-5-carbonyl)-N′,N′-diethyl Ethylenediamine]		87.4	
CCCCCCCCCCCCC1(C)CCc2c(c(C)c(C)c(O)c2C(=O)NCCN(CC)CC)O1 (stereo not shown) [f, N-(3,4-dihydro-2-dodecyl-6-hydroxy-2,7,8-trimethyl-2H-1-benzopyran-5-carbonyl)-N′,N′-diethyl Ethylenediamine]		0	% Inhibition ([2]; compound concentration 1000 μM): 100%
CCN(CC)CC(=O)Nc1c(O)c(C)c(C)c2c1CCC(C)(C)O2 [g, N-(3,4-dihydro-6-hydroxy-2,2,7,8-tetramethyl-2H-1-benzopyran-5-yl)-(diethylamino)acetamide]	100		Incidence of arrhythmias during the reperfusion period ([1]; 30 μM): 8 ± 2.1; Incidence of arrhythmias during the reperfusion period ([1]; 100 μM): 7 ± 2; % Inhibition ([2]; compound concentration 5 μM): 72.4%
CCCCCCC1(C)CCc2c(NC(=O)CN(CC)CC)c(O)c(C)c(C)c2O1 (stereo not shown) [h, N-(3,4-dihydro-2-hexyl-6-hydroxy-2,7,8-trimethyl-2H-1-benzopyran-5-yl)-(diethylamino)acetamide]	100		Incidence of arrhythmias during the reperfusion period ([1]; 30 μM): 6 ± 3; Incidence of arrhythmias during the reperfusion period ([1]; 100 μM): 6 ± 2.5; % Inhibition ([2]; compound concentration 5 μM): 17.4%
CCN(CC)CC(=O)NC1CC(C)(C)Oc2c(C)c(C)c(O)c(C)c21 (stereo not shown) [i, N-(3,4-dihydro-6-hydroxy-2,2,5,7,8-pentamethyl-2H-1-benzopyran-4-yl)-(diethylamino)acetamide]		98.6	
CCCCCCC1(C)CC(NC(=O)CN(CC)CC)c2c(C)c(O)c(C)c(C)c2O1 (stereo not shown) [j, N-(3,4-dihydro-2-hexyl-6-hydroxy-2,5,7,8-tetramethyl-2H-1-benzopyran-4-yl)-(diethylamino)acetamide]		96.1	
Vitamin E [reference compound]	21		

Reference: US7115657B2, “Bifunctional agents possessing antioxidant and antiarrhythmic activity” (Uni-Pharma Kleon Tsetis Pharmaceutical Laboratories S.A., priority 2000, dated 2006)
